From the NIST ThermoML archive (doi:10.1021/je800110r)
Numbers after ± are expanded uncertainties.

Settings: 293.15 K, Liquid, Vibrating tube method

CCCCCCCCCC [decane]
Settings	mass density [kg/m3]
19602 kPa	743.9 ± 2
19616 kPa	743.9 ± 2
19630 kPa	743.8 ± 2
19643 kPa	744 ± 2
19662 kPa	744 ± 2
19678 kPa	743.9 ± 2
19692 kPa	744 ± 2
19712 kPa	744 ± 2
19726 kPa	744 ± 2
19742 kPa	744 ± 2
19763 kPa	744 ± 2
19775 kPa	744 ± 2
19793 kPa	744.1 ± 2
19810 kPa	744.1 ± 2
19824 kPa	744.2 ± 2
19838 kPa	744.1 ± 2
19852 kPa	744.1 ± 2
19866 kPa	744.1 ± 2
19883 kPa	744.1 ± 2
19897 kPa	744.1 ± 2
19914 kPa	744.2 ± 2
19935 kPa	744.2 ± 2
19950 kPa	744.2 ± 2
19969 kPa	744.4 ± 2
19983 kPa	744.2 ± 2
19999 kPa	744.2 ± 2
20016 kPa	744.2 ± 2
20035 kPa	744.3 ± 2
20055 kPa	744.2 ± 2
20072 kPa	744.3 ± 2
20084 kPa	744.3 ± 2
20103 kPa	744.2 ± 2
20120 kPa	744.2 ± 2
20137 kPa	744.3 ± 2
20152 kPa	744.2 ± 2
20165 kPa	744.3 ± 2
20181 kPa	744.2 ± 2
20196 kPa	744.4 ± 2
20218 kPa	744.4 ± 2
20233 kPa	744.4 ± 2
20251 kPa	744.3 ± 2
20263 kPa	744.5 ± 2
20288 kPa	744.3 ± 2
20306 kPa	744.4 ± 2
20326 kPa	744.3 ± 2
20343 kPa	744.4 ± 2
20365 kPa	744.5 ± 2
20383 kPa	744.5 ± 2
20398 kPa	744.5 ± 2
20413 kPa	744.5 ± 2
20428 kPa	744.5 ± 2
20450 kPa	744.6 ± 2
20470 kPa	744.5 ± 2
20485 kPa	744.5 ± 2
20503 kPa	744.6 ± 2
20519 kPa	744.5 ± 2
20535 kPa	744.6 ± 2
20555 kPa	744.6 ± 2
20576 kPa	744.6 ± 2
20591 kPa	744.6 ± 2
20611 kPa	744.6 ± 2
20636 kPa	744.6 ± 2
20654 kPa	744.6 ± 2
20670 kPa	744.7 ± 2
20688 kPa	744.8 ± 2
20711 kPa	744.7 ± 2
20727 kPa	744.6 ± 2
20743 kPa	744.7 ± 2
20764 kPa	744.6 ± 2
20785 kPa	744.7 ± 2
20803 kPa	744.7 ± 2
20822 kPa	744.7 ± 2
20837 kPa	744.9 ± 2
20856 kPa	744.7 ± 2
20872 kPa	744.8 ± 2
20893 kPa	744.8 ± 2
20909 kPa	744.8 ± 2
20930 kPa	744.9 ± 2
20946 kPa	744.9 ± 2
20964 kPa	744.9 ± 2
20980 kPa	744.9 ± 2
20999 kPa	745 ± 2
21015 kPa	744.9 ± 2
21039 kPa	744.9 ± 2
21058 kPa	744.9 ± 2
21074 kPa	744.8 ± 2
21093 kPa	744.9 ± 2
21109 kPa	745 ± 2
21128 kPa	744.9 ± 2
21144 kPa	745 ± 2
21163 kPa	745 ± 2
21179 kPa	744.9 ± 2
21196 kPa	745.1 ± 2
21212 kPa	745 ± 2
21228 kPa	744.9 ± 2
21247 kPa	744.9 ± 2
21266 kPa	745.1 ± 2
21283 kPa	745.1 ± 2
21304 kPa	745 ± 2
21320 kPa	745.2 ± 2
21339 kPa	745.1 ± 2
21361 kPa	745.1 ± 2
21381 kPa	745.2 ± 2
21397 kPa	745.2 ± 2
21417 kPa	745.2 ± 2
21436 kPa	745.1 ± 2
21453 kPa	745.1 ± 2
21470 kPa	745.2 ± 2
21492 kPa	745 ± 2
21514 kPa	745.1 ± 2
21534 kPa	745.2 ± 2
21559 kPa	745.2 ± 2
21576 kPa	745.2 ± 2
21596 kPa	745.3 ± 2
21619 kPa	745.3 ± 2
21641 kPa	745.2 ± 2
21661 kPa	745.2 ± 2
21681 kPa	745.2 ± 2
21704 kPa	745.4 ± 2
21724 kPa	745.3 ± 2
21747 kPa	745.4 ± 2
21764 kPa	745.4 ± 2
21789 kPa	745.5 ± 2
21810 kPa	745.3 ± 2
21827 kPa	745.3 ± 2
21847 kPa	745.5 ± 2
21865 kPa	745.5 ± 2
21885 kPa	745.4 ± 2
21900 kPa	745.3 ± 2
21924 kPa	745.5 ± 2
21947 kPa	745.5 ± 2
21965 kPa	745.4 ± 2
21983 kPa	745.4 ± 2
22000 kPa	745.4 ± 2
22018 kPa	745.5 ± 2
22037 kPa	745.5 ± 2
22053 kPa	745.5 ± 2
